We go through 13 compounds from patent US6960597B2, “Aza-bridged-bicyclic amino acid derivatives as α4 integrin antagonists” (Orth-McNeil Pharmaceutical, Inc., priority 2000, dated 2005).

Where two headings read alike, the source gives them in different places. Where only a bound is given, the exact number is not on record here.

Assay [1] has as its target T1, human α4β7 (Homo sapiens, UniProt P13612+P26010).
T1 construct: expressed in transfected cells
T1 sequence (P13612 34-1032): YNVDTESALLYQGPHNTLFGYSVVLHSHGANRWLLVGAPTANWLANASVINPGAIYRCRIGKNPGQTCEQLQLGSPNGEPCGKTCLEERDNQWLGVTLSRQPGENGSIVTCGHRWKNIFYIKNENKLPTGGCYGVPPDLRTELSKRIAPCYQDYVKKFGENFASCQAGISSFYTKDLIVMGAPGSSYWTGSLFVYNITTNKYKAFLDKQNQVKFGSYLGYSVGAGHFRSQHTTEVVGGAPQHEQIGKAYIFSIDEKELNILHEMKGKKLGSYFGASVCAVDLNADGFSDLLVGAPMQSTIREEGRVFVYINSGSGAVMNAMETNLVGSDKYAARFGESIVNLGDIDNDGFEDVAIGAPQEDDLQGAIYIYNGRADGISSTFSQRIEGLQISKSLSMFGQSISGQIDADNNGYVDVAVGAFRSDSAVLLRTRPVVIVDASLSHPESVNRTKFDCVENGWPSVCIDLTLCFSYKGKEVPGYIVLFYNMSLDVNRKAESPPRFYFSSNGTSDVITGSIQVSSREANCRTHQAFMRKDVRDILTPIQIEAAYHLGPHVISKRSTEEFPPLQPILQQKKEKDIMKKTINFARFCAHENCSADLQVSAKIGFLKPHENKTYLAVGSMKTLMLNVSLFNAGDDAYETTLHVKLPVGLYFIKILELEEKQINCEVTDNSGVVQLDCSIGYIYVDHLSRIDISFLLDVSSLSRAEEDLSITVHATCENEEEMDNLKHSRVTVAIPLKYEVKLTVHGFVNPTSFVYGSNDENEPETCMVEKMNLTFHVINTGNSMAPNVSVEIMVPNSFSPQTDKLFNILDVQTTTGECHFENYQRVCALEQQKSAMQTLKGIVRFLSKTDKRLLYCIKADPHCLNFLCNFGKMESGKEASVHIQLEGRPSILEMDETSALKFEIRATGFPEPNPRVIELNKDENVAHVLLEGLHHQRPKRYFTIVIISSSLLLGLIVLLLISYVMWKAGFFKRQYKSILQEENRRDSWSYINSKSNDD
T1 sequence (P26010 20-798): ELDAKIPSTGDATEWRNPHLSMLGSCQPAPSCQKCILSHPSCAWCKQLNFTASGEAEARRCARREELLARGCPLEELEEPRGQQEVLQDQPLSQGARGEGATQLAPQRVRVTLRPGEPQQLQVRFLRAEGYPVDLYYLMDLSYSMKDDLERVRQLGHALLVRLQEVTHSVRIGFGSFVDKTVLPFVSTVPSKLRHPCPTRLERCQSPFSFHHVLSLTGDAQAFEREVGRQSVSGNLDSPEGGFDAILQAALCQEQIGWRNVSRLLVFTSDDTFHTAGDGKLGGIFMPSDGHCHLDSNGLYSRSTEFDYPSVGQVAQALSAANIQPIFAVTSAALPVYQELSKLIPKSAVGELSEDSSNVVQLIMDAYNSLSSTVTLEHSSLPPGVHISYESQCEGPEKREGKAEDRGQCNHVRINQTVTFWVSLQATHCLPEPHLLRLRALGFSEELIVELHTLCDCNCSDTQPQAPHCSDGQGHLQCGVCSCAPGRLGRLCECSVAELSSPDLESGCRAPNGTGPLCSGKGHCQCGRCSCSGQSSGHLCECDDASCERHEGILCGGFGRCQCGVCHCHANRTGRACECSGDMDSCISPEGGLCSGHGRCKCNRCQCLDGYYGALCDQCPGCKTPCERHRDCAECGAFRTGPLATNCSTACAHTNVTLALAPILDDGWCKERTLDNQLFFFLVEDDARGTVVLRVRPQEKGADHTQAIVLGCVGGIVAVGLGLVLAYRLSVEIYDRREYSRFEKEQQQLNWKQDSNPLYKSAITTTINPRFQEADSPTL
Nature of the assay: α4β7-K562 Cell Adhesion Assay (α4β7 Mediated Adhesion/VCAM-1). Format: cell-based. As to the method: α4β7-K562 Cell Adhesion Assay (α4β7 Mediated Adhesion/VCAM-1)
(§1) Immulon 96 well plates (Dynex) were coated with 100 μL recombinant hVCAM-1 at 4.0 μg/mL in 0.05 M NaCO3 buffer pH 9.0 overnight at 4° C. (R&D Systems). Plates were washed 3 times in PBS with 1% BSA and blocked for 1 h @ room temperature in this buffer. PBS was removed and compounds to be tested (50 μL) were added at 2× concentration. A stable cell line of K562 cells expressing human α4β7, (50 μL at 2×10^6/mL) labeled with 5 μM Calcein AM (Molecular Probes) for 1 h at 37° C., were added to each well and allowed to adhere for 1 h at room temperature. Plates were washed 3× in PBS+1% BSA and cells were lysed for 15 minutes in 100 μL of 1 M Tris pH 8.0 with 1% SDS. The plate was read at 485 nm excitation and 530 nm emission.

The target of assay [2] is T2, α4β1 integrin receptor (Homo sapiens, UniProt P05556+P13612).
T2 construct: Ramos Cell Adhesion Assay (α4β1 Mediated Adhesion/VCAM-1); endogenous in cells; host or cells: Ramos cells
Nature of the assay: Ramos Cell Adhesion Assay (α4β1 Mediated Adhesion/VCAM-1). Format: cell-based. As to the method:
Ramos Cell Adhesion Assay (α4β1 Mediated Adhesion/VCAM-1)
as §1, with “Ramos cells,” for “A stable cell line of K562 cells expressing human α4β7,”

Setting [3] is: Table IV, read-out: Inhibition of Binding of K562 Cells to Immobilized VCAM-1 IC50.
The mark [4] stands for this setting: Table III, read-out: Inhibition of Binding of Ramos Cells to Immobilized VCAM-1 IC50.
[5] abbreviates: Table IV, μM, read-out: Inhibition of Binding of K562 Cells to Immobilized VCAM-1 IC50.
The mark [6] stands for this setting: Table I, racemic mixtures and resolved (S,S) and (R,S) diastereomers, read-out: Antagonist IC50 Activity α4β7.
Setting [7] is: Table I, racemic mixtures and resolved (S,S) and (R,S) diastereomers, read-out: Antagonist IC50 Activity α4β1.

T2 sequence (P05556 21-798, one chain of several): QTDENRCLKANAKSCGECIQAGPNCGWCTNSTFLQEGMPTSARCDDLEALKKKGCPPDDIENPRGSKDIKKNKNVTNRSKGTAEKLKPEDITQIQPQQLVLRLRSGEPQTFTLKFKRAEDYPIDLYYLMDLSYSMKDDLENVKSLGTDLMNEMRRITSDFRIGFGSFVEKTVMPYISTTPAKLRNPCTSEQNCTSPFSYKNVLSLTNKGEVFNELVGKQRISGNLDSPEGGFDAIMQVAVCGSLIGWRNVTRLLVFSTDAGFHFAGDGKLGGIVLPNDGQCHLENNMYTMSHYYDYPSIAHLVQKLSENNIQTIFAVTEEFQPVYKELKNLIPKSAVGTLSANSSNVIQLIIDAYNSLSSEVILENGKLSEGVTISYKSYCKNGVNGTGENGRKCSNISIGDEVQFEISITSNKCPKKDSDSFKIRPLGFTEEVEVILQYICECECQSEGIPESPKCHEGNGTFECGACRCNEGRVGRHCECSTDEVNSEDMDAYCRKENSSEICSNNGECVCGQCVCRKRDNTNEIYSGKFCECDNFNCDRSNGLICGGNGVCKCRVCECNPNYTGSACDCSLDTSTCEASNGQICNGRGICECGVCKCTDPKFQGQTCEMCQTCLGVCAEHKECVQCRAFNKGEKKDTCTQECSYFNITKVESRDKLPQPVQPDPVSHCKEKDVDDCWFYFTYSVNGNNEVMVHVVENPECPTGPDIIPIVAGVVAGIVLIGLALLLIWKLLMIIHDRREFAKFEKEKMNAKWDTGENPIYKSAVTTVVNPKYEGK

As usually defined, the IC50 is the concentration at which inhibition is half-maximal. For the compound `O=C(Nc1ccc(C[C@H](NC(=O)C2C3C=CC(CC3)N2S(=O)(=O)c2ccccc2)C(=O)O)cc1)c1c(Cl)cccc1Cl` (stereo partly drawn) [Cpd 42, 4-[(2,6-dichlorobenzoyl)amino]-N-[[2-(phenylsulfonyl)-2-azabicyclo[2.2.2]oct-5-en-3-yl]carbonyl]-L-phenylalanine], the half-maximal inhibitory concentration (IC50) in assay [1] (setting [3]) worked out at 0.279 µM; in assay [2] (setting [4]) it was 0.022 µM.
As for `O=C(O)[C@H](Cc1ccc(OCc2c(Cl)cccc2Cl)cc1)NC(=O)[C@H]1C2CCC(CC2)N1S(=O)(=O)c1ccccc1` [Cpd 41, O-[(2,6-dichlorophenyl)methyl]-N-[[(3R)-2-(phenylsulfonyl)-2-azabicyclo[2.2.2]oct-3-yl]carbonyl]-L-tyrosine], the 50% inhibitory concentration (IC50) in assay [1] (setting [5]) is above 10 µM; in assay [2] (Table III, μM, read-out: Inhibition of Binding of Ramos Cells to Immobilized VCAM-1 IC50), above 5 µM.
On to `O=C(N[C@@H](Cc1ccc(N2C(=O)c3ccccc3C2=O)cc1)C(=O)O)C1C2CCC(CC2)N1S(=O)(=O)c1ccccc1` (mixture of isomers) [Cpd 47, 4-(1,3-dihydro-1,3-dioxo-2H-isoindol-2-yl)-N-[[2-(phenylsulfonyl)-2-azabicyclo[2.2.2]oct-3-yl]carbonyl]-L-phenylalanine], for which the IC50 came to 0.083 µM in assay [1] (setting [6]), 0.074 µM in assay [2] (setting [7]) and 0.074 µM in assay [2] (setting [4]).
`O=C(Nc1ccc(C[C@H](NC(=O)C2C3CCC(CC3)N2S(=O)(=O)c2ccccc2)C(=O)O)cc1)Nc1c(Cl)cccc1Cl` (stereo partly drawn) [Cpd 28, 4-[[[(2,6-dichlorophenyl)amino]carbonyl]amino]-N-[[2-(phenylsulfonyl)-2-azabicyclo[2.2.2]oct-3-yl]carbonyl]-L-phenylalanine]: the 50% inhibitory concentration (IC50) is above 5 µM in assay [1] (setting [5]) and 1.6 µM in assay [2] (setting [4]).
In the case of `CC(C)C(=O)Nc1ccc(C[C@H](NC(=O)[C@@H]2C3CCC(CC3)N2S(=O)(=O)c2ccccc2)C(=O)O)cc1` [Cpd 69, 4-[(2-methyl-1-oxopropyl)amino]-N-[[(3S)-2-(phenylsulfonyl)-2-azabicyclo[2.2.2]oct-3-yl]carbonyl]-L-phenylalanine], the IC50 was determined as 1.67 µM in assay [1] (setting [3]) and 0.455 µM in assay [2] (setting [4]).
On to `O=C(Nc1ccc(C[C@H](NC(=O)C2C3CCC(CC3)N2S(=O)(=O)c2ccccc2)C(=O)O)cc1)c1c(Cl)cccc1Cl` (mixture of isomers) [Cpd 6, 4-[(2,6-dichlorobenzoyl)amino]-N-[[2-(phenylsulfonyl)-2-azabicyclo[2.2.2]oct-3-yl]carbonyl]-L-phenylalanine], for which the values for the half-inhibitory concentration (IC50) in assay [1] (setting [6]), in assay [2] (setting [7]) and in assay [2] (setting [4]) were 0.283 µM, 0.02 µM and 0.025 µM, respectively.
Regarding `Cc1ccc(S(=O)(=O)N2C3CCC(CC3)C2C(=O)N[C@@H](Cc2ccc(NC(=O)c3ccccc3Cl)cc2)C(=O)O)cc1` (stereo partly drawn) [Cpd 10, 4-[(2-chlorobenzoyl)amino]-N-[[2-[(4-methylphenyl)sulfonyl]-2-azabicyclo[2.2.2]oct-3-yl]carbonyl]-L-phenylalanine], the half-maximal inhibitory concentration (IC50) in assay [1] (setting [3]) worked out at 4.41 µM; in assay [2] (setting [4]), 0.145 µM.
Take `O=C(Nc1ccc(C[C@H](NC(=O)[C@@H]2C3CCC(CC3)N2S(=O)(=O)c2ccccc2)C(=O)O)cc1)c1ccncc1` [Cpd 50a, 4-[(4-pyridinylcarbonyl)amino]-N-[[(3S)-2-(phenylsulfonyl)-2-azabicyclo[2.2.2]oct-3-yl]carbonyl]-L-phenylalanine]: the half-maximal inhibitory concentration (IC50) in assay [1] (setting [3]) was 0.223 µM; in assay [2] (setting [4]), 0.054 µM.
As for `CC(C)(C)OC(=O)N1CCC(C(=O)Nc2ccc(C[C@H](NC(=O)[C@@H]3C4CCC(CC4)N3S(=O)(=O)c3ccccc3)C(=O)O)cc2)CC1` [Cpd 53a, 4-[[[1-[(1,1-dimethylethoxy)carbonyl]-4-piperidinyl]carbonyl]amino]-N-[[(3S)-2-(phenylsulfonyl)-2-azabicyclo[2.2.2]oct-3-yl]carbonyl]-L-phenylalanine], the IC50 in assay [1] (setting [6]) came to 0.693 µM; in assay [2] (setting [7]) it was 0.219 µM; in assay [2] (setting [4]), 0.219 µM.
`CN(C)C(=O)Oc1ccc(C[C@H](NC(=O)[C@@H]2C3CCC(CC3)N2S(=O)(=O)c2ccccc2)C(=O)O)cc1` [Cpd 52a, O-[(dimethylamino)carbonyl]-N-[[(3S)-2-(phenylsulfonyl)-2-azabicyclo[2.2.2]oct-3-yl]carbonyl]-L-tyrosine]: the IC50 in assay [1] came to 0.436 µM; in assay [1] (read-out: Inhibition of Binding of K562 Cells to Immobilized VCAM-1 IC50, Table IV), 0.436 µM; in assay [2] (Antagonist IC50 Activity α4β1, Table I, racemic mixtures and resolved (S,S) and (R,S) diastereomers), 0.045 µM; in assay [2] (Inhibition of Binding of Ramos Cells to Immobilized VCAM-1 IC50, Table III), 0.04 µM.
For `O=C(Nc1ccc(C[C@H](NC(=O)C2C3CCC(CC3)N2S(=O)(=O)c2ccccc2)C(=O)O)cc1)C1CCNCC1` (stereo partly drawn) [Cpd 59, 4-[(4-piperidinylcarbonyl)amino]-N-[[2-(phenylsulfonyl)-2-azabicyclo[2.2.2]oct-3-yl]carbonyl]-L-phenylalanine], the half-inhibitory concentration (IC50) came out at 1.5 µM in assay [1] (setting [3]) and 0.237 µM in assay [2] (setting [4]).
`Cc1ccc(S(=O)(=O)N2C3CCC(CC3)[C@H]2C(=O)N[C@@H](Cc2ccc(OCc3c(Cl)cccc3Cl)cc2)C(=O)O)cc1` [Cpd 29, 4-[(2,6-dichlorophenyl)methoxy]-N-[[(3S)-2-[[4-methylphenyl)sulfonyl]-2-azabicyclo[2.2.2]oct-3-yl]carbonyl]-L-phenylalanine]: the IC50 in assay [1] (setting [3]) was found to be 4.94 µM; in assay [2] (setting [4]), 0.058 µM.
`O=C(O)[C@H](Cc1ccc(N2C(=O)c3ccccc3C2=O)cc1)NC(=O)[C@@H]1C2CCC(CC2)N1S(=O)(=O)c1ccccc1` [Cpd 47a, 4-(1,3-dihydro-1,3-dioxo-2H-isoindol-2-yl)-N-[[(3S)-2-(phenylsulfonyl)-2-azabicyclo[2.2.2]oct-3-yl]carbonyl]-L-phenylalanine]: the concentration for half-maximal inhibition (IC50) in assay [1] (setting [6]) was determined as 0.102 µM; in assay [2] (setting [7]), 0.026 µM; in assay [2] (setting [4]), 0.026 µM.
